Columns and labels:
in vitro = details: microsomes, pH 7.4; for Percent Remaining 0 min: 0 h; for Percent Remaining 0 min / Percent Remaining 10 min / Percent Remaining 20 min / Percent Remaining 30 min / Percent Remaining 60 min: 1 μM; for Percent Remaining 30 min: 0.5 h; for Percent Remaining 60 min: 1 h
Method: Additionally, several of the N77A7 analogs were subjected to the test for the metabolic stability in human and mouse liver microsomes. Briefly, 1 μM of test compound was incubated with microsomal protein (human liver microsomes: 0.5 mg/mL; mouse liver microsomes 0.5 mg/mL) and buffer (100 mM potassium phosphate, pH 7.4, 5 mM magnesium chloride). The positive control was 5 μM testosterone. The reaction was equilibrated at 37 C in a shaking water bath for 3 to 5 minutes. After equilibration, an aliquot was removed and combined with 50/50 acetonitrile/water containing 0.1% formic acid and internal standard to terminate the reaction. 1 mM NADPH was immediately added and the tube was returned to the water bath. Five sample time points were taken (0, 10, 20, 30, and 60 minutes). Aliquots were removed and combined with 50/50 acetonitrile/water containing 0.1% formic acid and internal standard to terminate the reaction. The samples were mixed for 10 minutes and centrifuged. The supernatant from each sample was diluted (if necessary) and then transferred to vials for analysis by LC-MS/MS for the test compound and internal standard without calibration standards. The percent remaining at each time point was determined by the test compound's peak area response ratio versus the 0 minute sample.

HO15.19-Vector cells = assay: Cell cycle distribution by FACS; assay type: cell-based, rat; details: 3 μM
[1] = tested on: SK-Mel-103 melanoma cells
Method: One week following inoculation, treatment with 50 mg/kg N77A7 or Captisol vehicle control commenced. Treatment occurred daily by ip administration. Tumors were measured biweekly. Tumor volume was calculated using the formula tumor volume=L×W^2/2, where W=shortest dimension.
Our Myc inhibitors were tested for their effect against a panel of tumor cell lines, including neuroblastoma and melanoma that represent cell lines with aberrant N-myc and c-Myc expression, respectively. This panel of cell lines included the human neuroblastoma lines BE(2)C, IMR32 and NBL-WN (N-myc amplified), NBL-S (N-myc overexpression), SH-SY5Y (significant N- and c-Myc expression) and SH-EP (low levels c-Myc only) as well as two melanoma cell lines (#3 and #10-c-Myc overexpression) and normal melanocytes).

[2] = tested on: C-MYC-activated global gene expression in SK-Mel-103 melanoma cells; assay: Global gene expression analysis, Affymetrix U133 Plus 2.0; assay type: cell-based, human; details: 4 μM, 48 hours
Method: FIG. 13 illustrates a comparison of changes in global gene expression caused by depletion of C-MYC via shRNA or by treatment with N77A7.
SK-Mel-103 melanoma cells were infected with control- or MYC shRNA-expressing lentiviruses or treated with DMSO or 4 μM of N77A7. In 48 hours after lentiviral infection or incubation with the chemicals, cells were collected, RNA was isolated and subjected to global expression analysis using Affymetrix GeneChip® Human Genome U133 Plus 2.0 Platform. A linear model specifically designed for microarray analysis was applied to the data. Differentially expressed probe sets were detected using a nested F-test approach. An adjusted p-value of 0.005 was used to assess significance, adjusting for multiple comparisons using false discovery rate. The obtained results are schematically represented in FIG. 13. It was determined that incubation with N77A7 negatively affected expression of 820 genes by ≧2 fold (591+229, FIG. 13). […] Therefore it is logical to expect that the number of genes whose expression is suppressed both by MYC-shRNA and N77A7 should be higher than the number of genes whose expression is induced by both treatments.

CCN(CC)c1ccc(/C=N/NC(=O)Cn2nnc(-c3ccccc3)n2)c(O)c1 [Compound N77A7]
Percent Remaining 0 min (in vitro; human): 100% | Percent Remaining 10 min (in vitro; human): 87% | Percent Remaining 20 min (in vitro; human): 30% | Percent Remaining 30 min (in vitro; human): 1− Percent | Percent Remaining 60 min (in vitro; human): <1.0% | half-life at 1 µM (in vitro; human): 13.1 min | microsomal CLint at 1 μM (in vitro; human): 110 µL/min/mg | Percent Remaining 0 min (in vitro; mouse): 100% | Percent Remaining 10 min (in vitro; mouse): 25% | Percent Remaining 20 min (in vitro; mouse): 8.9% | Percent Remaining 30 min (in vitro; mouse): 4.5% | Percent Remaining 60 min (in vitro; mouse): <1.0% | half-life at 1 µM (in vitro; mouse): 5.2 min | microsomal CLint at 1 μM (in vitro; mouse): 270 µL/min/mg | HO15.19-Vector G2 (HO15.19-Vector cells; percent of cells in G2 phase): 23.88% | HO15.19-Vector S (HO15.19-Vector cells; percent of cells in S phase): 21.22% | observable toxicity ([1]; mouse, in vivo): absence of any observable toxicity | tumor growth ([1]; preliminary, ½ maximum tolerated dose, melanoma xenograft, FIG. 7): reduced tumor growth compared to the vehicle control | number of genes whose expression was negatively affected by ≧2 fold [2]: 820 genes | number of these genes also suppressed ≧2 fold by MYC shRNA [2]: 591 genes | share of genes induced ≧2 fold also upregulated ≧2 fold by MYC shRNA [2]: 47.1% | share of suppressed genes also suppressed ≧2 fold by MYC shRNA [2]: 72.1%

From patent US9387213B2, “Small molecules inhibiting oncoprotein Myc” (Health Research, Inc., priority 2012, dated 2016)
